Results reported in patent publication US11970490B2, “Stable heavy isotopes in amide functional groups and uses thereof” (RISEN (SUZHOU) PHARMA TECH CO., LTD., priority 2020, dated 2024).

What was measured:
[1] = Pharmacokinetic studies in Sprague Dawley (SD) rats, oral gavage, plasma; format: in vivo; details: for AUC(0-t) / AUC(0-inf) / Cmax / Tmax / Vd/F: Sprague-Dawley, rat; for AUC(0-t) / AUC(0-inf) / Cmax / Tmax / Vd/F / plasma concentration at 24-h timepoint / CLz/F: oral gavage; for AUC(0-t) / AUC(0-inf) / Cmax / Tmax / Vd/F / CLz/F: plasma; for Vd/F: read-out: Vz/F; for plasma concentration at 24-h timepoint: 0.322 mg/kg
Method: (a) SD rats, six in a group (n=6), were grouped randomly. Compound 1 (Alpelisib-^18O1) and Alpelisib were mixed and adjusted to 1:1 molar ratio in dosing solution (1.25 mg/mL); and the dosing solution was administered to the animals, via oral gavage, at a dose level of 2.5 mg/kg. Blood samples were collected at pre-set time points following drug administration, at 0.167, 0.5, 1, 2, 3, 4, 6, 8, and 24 hours (h). The blood samples were converted to plasma samples using standard techniques, and the latter samples were analyzed to determine the concentrations of Compound 1 and Alpelisib. In FIG. 1a, lines labelled with -o- and -Δ-represent the plasma concentrations of Alpelisib-^18O1 and Alpelisib, respectively, following oral administration of the same molar dose of Alpelisib-^18O1 and Alpelisib to the animals.
(b) Similarly, Compound 1 (Alpelisib-^18O1) and Alpelisib were administered to the animals (SD rats, n=4), via oral gavage, at a low dose (dose level of 0.322 mg/kg). Blood samples were collected at pre-set time points following drug administration, at 0.167, 0.5, 1, 2, 4, 6, 8, 10 and 24 hours (h). The blood samples were converted to plasma samples using standard techniques, and the latter samples were analyzed to determine the concentrations of Compound 1 and Alpelisib. […] In FIG. 1b, solid line and dashed line represent the plasma concentrations of Alpelisib-^18O1 and Alpelisib, respectively.

[2] = Pharmacokinetic studies in ICR mice, oral gavage, plasma; format: in vivo; details: 2.5 mg/kg; for AUC(0-inf) / AUC(0-t) / Cmax / Tmax / Vd/F: mouse; for AUC(0-inf) / AUC(0-t) / Cmax / Tmax / Vd/F / CLz/F: oral gavage, 1:1 molar mix, plasma; for Vd/F: read-out: Vz/F
Method: ICR mice, 48, in 6 groups (n=8), were grouped randomly. Compound 1 (Alpelisib-^18O1) and Alpelisib were mixed and adjusted to 1:1 molar ratio in dosing solution (1.25 mg/mL); and the dosing solution was administered to the animals, via oral gavage, at a dose level of 2.5 mg/kg. Blood samples were collected (a group of 8 animals for each time point) at time points, after dosing, at 0.5, 1, 2, 4, 8, and 12 h. The blood samples were converted to plasma samples using standard techniques, and the latter samples were analyzed to determine the concentrations of Compound 1 and Alpelisib. In FIG. 2, lines labelled with -o- and -Δ-represent the plasma concentrations of Alpelisib-^18O1 and Alpelisib, respectively, following oral administration of the same dose of Alpelisib-^18O1 and Alpelisib to the animals.

[3] = Pharmacokinetic studies in beagle dogs, single oral dose, co-administered; format: in vivo; details: for Cmax / Tmax / half-life / AUC(0-t) / Vd/F: both sexes, dog, plasma; for Cmax / Tmax / half-life / AUC(0-t) / Vd/F / CLz/F: single oral dose 2.5 mg/kg each; for Cmax / Tmax / half-life / Vd/F / CLz/F: co-administered; for AUC(0-t): co-administered (total 5 mg/kg); for Vd/F: read-out: Vz/F
Method: Male and female beagle dogs (n=4; 2 males and 2 females) were used in the study. A single oral dose of Alpelisib (2.5 mg/kg) and Compound 1 (^18O1-Alpelisib) (2.5 mg/kg) were co-administered (at a total dose of 5 mg/kg) in DMSO and 0.5% carboxymethyl cellulose sodium (CMC-Na) aqueous solution (5:95, v/v). Blood samples were collected for analysis of Alpelisib and ^18O1-Alpelisib at 0.25, 0.5, 1, 1.5, 2, 3, 4, 6, 8, 10, 12 and 24 h. In FIG. 4, lines labelled with -o- and -Δ- represent the plasma concentrations of Alpelisib-^18O1 and Alpelisib, respectively, following oral administration of the same dose of Alpelisib-^18O1 and Alpelisib to the animals.

[4] = M4 and M4-18O1 production in mini pig liver S9; format: in vitro ADME; details: mini pig liver S9, 37° C., β-NADPH, 0-240 min, equal molar co-incubation
Method: (§1) Stock solution (50 μL) containing equal molar concentration of Alpelisib and Alpelisib-^18O1 was diluted with pre-warmed (37° C., water bath) 0.1 M Tris-Acetate buffer; and the concentration of each compound in this working solution was 4.5 μM. In each incubation well were added the above working solution (50 μL) and a liver S9 solution (50 μL), mixed well. The sample was pre-incubated for 5 min, following by addition, to each well, of β-NADPH dosing solution (100 μL). The sample plate was incubated at 37° C., and analyzed at time points of 0, 15, 30, 60, and 240 min., in triplicates. Sample analysis: at a pre-set time-point, a stop solution (800 μL, acetonitrile) was added to each well; the sample was well-mixed (Vortex), and centrifuged at 12000 rpm for 5 minutes; the supernatant was transferred to analytical sample vial, and then analyzed with LC-MS/MS, for M4 and M4-^18O1. […] Liver S9 used in the experiment: (a) monkey liver S9, (b) pooled human S9, (c) mini pig liver S9, and (d) male Wistar rat Liver S9.

[5] = M4 and M4-18O1 production in pooled human S9; format: in vitro ADME; details: pooled human S9, 37° C., β-NADPH, 0-240 min, equal molar co-incubation
Method: as §1

[6] = M4 and M4-18O1 production in monkey liver S9; format: in vitro ADME; details: monkey liver S9, 37° C., β-NADPH, 0-240 min, equal molar co-incubation
Method: as §1

[7] = M4 and M4-18O1 production in male Wistar rat liver S9; format: in vitro ADME; details: male Wistar rat liver S9, 37° C., β-NADPH, 0-240 min, equal molar co-incubation
Method: as §1

[8] = James, A. et al., 2015; cited from earlier work
[9] = dose 2.5 mg/kg, 1:1 molar mix of Compound 1 and Alpelisib

Structure (SMILES) | AUC(0-t) [1, 9] [ng·h/mL] | AUC(0-inf) ([1]; dose 2.5 mg/kg, 1:1 molar mix) [ng·h/mL] | Cmax ([1]; dose 2.5 mg/kg, 1:1 molar mix) [ng/mL] | Tmax ([1]; dose 2.5 mg/kg, 1:1 molar mix) [h] | Vd/F ([1]; dose 2.5 mg/kg, 1:1 molar mix) [L/kg] | AUC(0-inf) ([1]; low dose 0.322 mg/kg) [ng·h/mL] | AUC(0-t) ([1]; low dose 0.322 mg/kg) [ng·h/mL] | Cmax ([1]; low dose 0.322 mg/kg) [ng/mL] | Tmax ([1]; low dose 0.322 mg/kg) [h] | Vd/F ([1]; low dose 0.322 mg/kg) [L/kg] | plasma concentration at 24-h timepoint [1] | CLz/F ([1]; dose 2.5 mg/kg, 1:1 molar mix) [mL/min/kg] | CLz/F ([1]; low dose 0.322 mg/kg) [mL/min/kg] | AUC(0-inf) [2] [ng·h/mL] | AUC(0-t) [2] [ng·h/mL] | Cmax [2] [ng/mL] | Tmax [2] [h] | Vd/F [2] [L/kg] | CLz/F [2] [mL/min/kg] | Cmax [3] [ng/mL] | other results
Cc1nc(NC(=O)N2CCC[C@H]2C(N)=O)sc1-c1ccnc(C(C)(C)C(F)(F)F)c1 [Alpelisib, N-(4-methyl-5-(2-(2,2,2-trifluoro-1,1-dimethylethyl)-4-pyridinyl)-2-thiazolyl)aminocarbonyl-L-prolinamide, reference compound] | 26400 | 26500 | 2300 | 3 | 1.8 | 80.3 | 75.2 | 28.1 | 0.625 | 13.1 | below the limit of quantification | 7.87 | 68.3 | 30600 | 26200 | 4210 | 2 | 2.37 | 6.82 | 931 | Tmax [3]: 1.2 h; half-life [3]: 5.4 h; AUC(0-t) [3]: 6120 ng·h/mL; Vd/F [3]: 3 L/kg; CLz/F [3]: 6.83 mL/min/kg
Cc1nc(NC(=O)N2CCC[C@H]2C(N)=[18O])sc1-c1ccnc(C(C)(C)C(F)(F)F)c1 [Compound 1, N-(4-methyl-5-(2-(2,2,2-trifluoro-1,1-dimethylethyl)-4-pyridinyl)-2-thiazolyl)aminocarbonyl-L-prolin-^18O-amide] | 28700 | 28800 | 2390 | 3 | 1.66 | 132 | 118 | 32.6 | 0.875 | 11.4 | below the limit of quantification | 7.23 | 41.7 | 32600 | 27800 | 4520 | 2 | 2.24 | 6.4 | 1470 | plasma concentration compared with Alpelisib ([1]; oral, both doses tested (2.5 and 0.322 mg/kg), greatest effect at low dose): higher; metabolism compared to Alpelisib (M4-18O1 versus M4 production) [4]: reduced; plasma concentration compared with Alpelisib ([2]; oral): higher; metabolism compared to Alpelisib (M4-18O1 versus M4 production) [5]: reduced; metabolism compared to Alpelisib (M4-18O1 versus M4 production) [6]: reduced; Tmax [3]: 1.1 h; half-life [3]: 4.5 h; AUC(0-t) [3]: 6680 ng·h/mL; Vd/F [3]: 2.4 L/kg; plasma concentration compared with Alpelisib ([3]; oral, 2.5 mg/kg each): higher; CLz/F [3]: 6.33 mL/min/kg; metabolism compared to Alpelisib (M4-18O1 versus M4 production) [7]: reduced
Cc1nc(NC(=O)N2CCC[C@H]2C(=O)O)sc1-c1ccnc(C(C)(C)C(F)(F)F)c1 [Compound M4] | – | – | – | – | – | – | – | – | – | – | – | – | – | – | – | – | – | – | – | – | biological activity of the acid metabolite [8]: biologically inactive
